Experimental findings from patent US20210163459A1, “PESTICIDALLY ACTIVE AZETIDINE SULFONES AMIDE ISOXAZOLINE DERIVATIVES” (SYNGENTA CROP PROTECTION AG, priority 2018, published 2021) are described below.

The test system of one assay is Spodoptera littoralis. Kind of assay: Spodoptera littoralis (Egyptian Cotton Leaf Worm) test on sprayed cotton leaf discs. In kind it is in vivo. Conditions: foliar, 72 h, application rate of 200 ppm, L1 larvae, assessed 3 days after infestation in comparison to untreated samples, read-out: control (mortality, anti-feeding effect, growth inhibition). As to the method: Spodoptera littoralis (Egyptian Cotton Leaf Worm)
Cotton leaf discs were placed onto agar in 24-well microtiter plates and sprayed with aqueous test solutions prepared from 10′000 ppm DMSO stock solutions. After drying the leaf discs were infested with five L1 larvae. The samples were assessed for mortality, anti-feeding effect, and growth inhibition in comparison to untreated samples 3 days after infestation. Control of Spodoptera littoralis by a test sample is given when at least one of the categories mortality, anti-feedant effect, and growth inhibition is higher than the untreated sample.

A further assay has as its system Euschistus heros. Kind of assay: Euschistus heros (Neotropical Brown Stink Bug) test on sprayed soybean leaves. In kind it is in vivo. The settings on record: 120 h, application rate of 200 ppm, N2 nymphs, assessed 5 days after infestation in comparison to untreated samples, read-out: effect in at least one of the two categories (mortality or growth inhibition). As to the method:
Euschistus heros(Neotropical Brown Stink Bug)
Soybean leaves on agar in 24-well microtiter plates were sprayed with aqueous test solutions prepared from 10′000 ppm DMSO stock solutions. After drying the leaves were infested with N2 nymphs. The samples were assessed for mortality and growth inhibition in comparison to untreated samples 5 days after infestation.
The following compounds gave an effect of at least 80% in at least one of the two categories (mortality or growth inhibition) at an application rate of 200 ppm: A1, A2

Where only a bound is given, the exact number is not on record here.

As usually defined, the mortality is the share of the test organisms that died. In the case of `COC(=O)OCN(C(=O)c1ccc(C2=NO[C@@](c3cc(Cl)c(F)c(Cl)c3)(C(F)(F)F)C2)cc1C)C1CN(S(=O)(=O)C(F)F)C1` [Compound A2, [[4-[(5S)-5-(3,5-dichloro-4-fluoro-phenyl)-5-(trifluoromethyl)-4H-isoxazol-3-yl]-2-methyl-benzoyl]-[1-(difluoromethylsulfonyl)azetidin-3-yl]amino]methyl methyl carbonate], the mortality at 200 ppm in the assay on Spodoptera littoralis is ≥ 80%. Also, in the assay on Euschistus heros, the percent effect (mortality or growth inhibition) at 200 ppm was ≥ 80%.
